Results on 48 compounds are retold here after patent US10035801B2, “Pyrazolo compounds and uses thereof” (CONSTELLATION PHARMACEUTICALS, INC., priority 2013, dated 2018).

In one test the target is T1, KDM5A (Homo sapiens, UniProt P29375).
T1 construct: Full length KDM5A enzyme was expressed and purified inhouse; made in house
T1 sequence (P29375 whole entry): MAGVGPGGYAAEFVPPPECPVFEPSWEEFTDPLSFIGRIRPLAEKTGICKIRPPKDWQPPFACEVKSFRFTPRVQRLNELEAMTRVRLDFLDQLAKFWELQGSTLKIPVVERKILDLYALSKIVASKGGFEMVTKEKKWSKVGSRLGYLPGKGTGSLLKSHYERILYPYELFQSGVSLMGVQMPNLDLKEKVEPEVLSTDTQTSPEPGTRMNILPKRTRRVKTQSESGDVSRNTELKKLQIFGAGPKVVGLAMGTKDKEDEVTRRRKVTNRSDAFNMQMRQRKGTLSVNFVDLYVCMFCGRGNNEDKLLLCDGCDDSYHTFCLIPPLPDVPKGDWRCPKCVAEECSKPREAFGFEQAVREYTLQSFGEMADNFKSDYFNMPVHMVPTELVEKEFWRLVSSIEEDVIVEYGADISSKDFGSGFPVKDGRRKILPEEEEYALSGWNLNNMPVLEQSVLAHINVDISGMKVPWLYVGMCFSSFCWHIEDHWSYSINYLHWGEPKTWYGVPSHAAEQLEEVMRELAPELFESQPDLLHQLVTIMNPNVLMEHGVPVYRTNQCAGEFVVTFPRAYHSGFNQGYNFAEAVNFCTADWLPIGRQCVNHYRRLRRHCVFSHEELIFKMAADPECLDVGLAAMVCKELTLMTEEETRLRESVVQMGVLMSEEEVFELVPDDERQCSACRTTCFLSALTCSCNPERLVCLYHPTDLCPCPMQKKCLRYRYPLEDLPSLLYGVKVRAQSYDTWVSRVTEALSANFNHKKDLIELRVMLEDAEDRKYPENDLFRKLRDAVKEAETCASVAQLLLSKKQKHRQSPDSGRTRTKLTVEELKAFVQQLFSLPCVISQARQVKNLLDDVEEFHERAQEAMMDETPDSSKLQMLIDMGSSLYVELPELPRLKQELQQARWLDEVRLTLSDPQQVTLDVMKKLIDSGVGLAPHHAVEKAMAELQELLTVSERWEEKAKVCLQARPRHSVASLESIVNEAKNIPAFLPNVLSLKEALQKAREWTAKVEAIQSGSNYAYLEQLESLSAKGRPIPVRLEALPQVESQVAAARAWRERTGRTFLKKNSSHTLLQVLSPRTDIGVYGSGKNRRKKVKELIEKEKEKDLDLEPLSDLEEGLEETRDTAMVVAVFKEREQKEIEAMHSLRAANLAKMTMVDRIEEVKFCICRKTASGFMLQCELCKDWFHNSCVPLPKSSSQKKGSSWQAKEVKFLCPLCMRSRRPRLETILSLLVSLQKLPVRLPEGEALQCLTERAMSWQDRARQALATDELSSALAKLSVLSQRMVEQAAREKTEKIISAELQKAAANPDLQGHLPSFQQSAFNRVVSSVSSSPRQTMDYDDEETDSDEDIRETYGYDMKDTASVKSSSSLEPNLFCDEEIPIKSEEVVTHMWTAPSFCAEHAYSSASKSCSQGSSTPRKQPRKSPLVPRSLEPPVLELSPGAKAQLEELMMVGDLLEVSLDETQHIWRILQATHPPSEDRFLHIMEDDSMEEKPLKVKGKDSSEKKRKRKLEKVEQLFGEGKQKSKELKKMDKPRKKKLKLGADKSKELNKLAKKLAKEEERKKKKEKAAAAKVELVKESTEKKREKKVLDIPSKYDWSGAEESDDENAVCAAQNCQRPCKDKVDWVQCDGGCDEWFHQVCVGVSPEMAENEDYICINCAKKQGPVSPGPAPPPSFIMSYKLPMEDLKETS
Put plainly: KDM5 enzyme assay, KDM5A HTRF (Example 463). The format is biochemical.
Conditions: not given
A word on the IC50: it is the concentration that gives 50% inhibition. In the case of `CC(C)c1c(-c2cccnc2)[nH]c2c(C#N)cnn2c1=O` [Example 91], it took 0.012 µM to reach half-maximal inhibition (IC50).

On to `CC(C)c1c(-c2ccc(OC(F)(F)F)cc2)[nH]c2c(C#N)cnn2c1=O` [Example 257], for which the IC50 came out at 0.037 µM.

The same test, now with this note: compounds of Examples 1-432; read-out: Example 463 Assay KDM5A HTRF IC50.
For the compound `Cc1[nH]c2c(C#N)cnn2c(=O)c1-c1ccccc1` [Example 217], the IC50 was determined as 2.1 µM.

In the case of `CC(C)c1c(-c2ccc3c(c2)OC(F)(F)O3)[nH]c2c(C#N)cnn2c1=O` [Example 204], the IC50 is 0.019 µM.

As for `CC(C)c1c(-c2cncc(Cl)c2)[nH]c2c(C#N)cnn2c1=O` [Example 73], the half-inhibitory concentration (IC50) came to 0.0073 µM.

In the case of `CC(C)c1c(-c2ccc(C3CC3)nc2)[nH]c2c(C#N)cnn2c1=O` [Example 338], the IC50 was found to be 0.034 µM.

For the compound `CC(C)c1c(-c2cnn(C(C)(C)C)c2)[nH]c2c(C#N)cnn2c1=O` [Example 117], the IC50 was found to be 0.014 µM.

Take `CC(C)c1c(-c2ccc3c(c2)OCO3)[nH]c2c(C#N)cnn2c1=O` [Example 151]: the IC50 came out at 0.017 µM.

Regarding `CC(C)c1c(N2CCCCC2)[nH]c2c(C#N)cnn2c1=O` [Example 48, 6-isopropyl-7-oxo-5-(piperidin-1-yl)-4,7-dihydropyrazolo[1,5-a]pyrimidine-3-carbonitrile], the 50% inhibitory concentration (IC50) is 0.084 µM.

As to `CC(=O)N1CC=C(c2[nH]c3c(C#N)cnn3c(=O)c2C(C)C)C1` [Example 288], the concentration for half-maximal inhibition (IC50) turned out to be 0.012 µM.

On to `CC(C)c1c(-c2cnn(Cc3cccc(Oc4ccccc4)c3)c2)[nH]c2c(C#N)cnn2c1=O` [Example 102], for which the IC50 was determined as 0.01 µM.

Turning to `CC(C)c1c(-c2ccc(-c3ccccc3)o2)n(C)c2c(C#N)cnn2c1=O` [Example 185], the half-maximal inhibitory concentration (IC50) was determined as 0.02 µM.

`CC(C)c1c(-c2cccc(C#Cc3ccccc3)c2)[nH]c2c(C#N)cnn2c1=O` [Compound 387]: the half-maximal inhibitory concentration (IC50) is 0.13 µM.

`CC(C)c1c(-c2cnn(C3COC3)c2)[nH]c2c(C#N)cnn2c1=O` [Example 145]: the half-inhibitory concentration (IC50) is 0.017 µM.

With `CC(C)Cn1cc(-c2[nH]c3c(C#N)cnn3c(=O)c2C(C)C)cn1` [Example 158], the IC50 came to 0.015 µM.

For `CC(C)c1c(-c2cnn(C3CCS(=O)(=O)CC3)c2)[nH]c2c(C#N)cnn2c1=O` [Example 18, 5-(1-(1,1-Dioxidotetrahydro-2H-thiopyran-4-yl)-1H-pyrazol-4-yl)-6-isopropyl-7-oxo-4,7-dihydropyrazolo[1,5-a]pyrimidine-3-carbonitrile], the half-inhibitory concentration (IC50) came out at 0.021 µM.

Consider `CC(C)c1c(-c2cnn(C3CCCOC3)c2)[nH]c2c(C#N)cnn2c1=O` (stereo not drawn) [Example 285], for which the IC50 amounted to 0.023 µM.

Turning to `CC(C)c1c(-c2cccc(N3CCCC3=O)c2)[nH]c2c(C#N)cnn2c1=O` [Example 42, 6-isopropyl-7-oxo-5-(3-(2-oxopyrrolidin-1-yl)phenyl)-4,7-dihydropyrazolo[1,5-a]pyrimidine-3-carbonitrile], the IC50 came out at 0.021 µM.

On to `Cn1c(-c2ccccc2)c(Cl)c(=O)n2ncc(C#N)c12` [Example 219], for which the half-inhibitory concentration (IC50) was 4.3 µM.

Take `CC(C)c1c(-c2cnn(C3(C)CC3)c2)[nH]c2c(C#N)cnn2c1=O` [Example 7, 6-Isopropyl-5-(1-(1-methylcyclopropyl)-1H-pyrazol-4-yl)-7-oxo-4,7-dihydropyrazolo[1,5-a]pyrimidine-3-carbonitrile]: the half-inhibitory concentration (IC50) came out at 0.03 µM.

As for `CC(C)c1c(-c2cnn(CCc3ccccc3)c2)[nH]c2c(C#N)cnn2c1=O` [Example 114], the IC50 stood at 0.0055 µM.

Regarding `CC(C)c1c(-c2ccn[nH]2)n(C)c2c(C#N)cnn2c1=O` [Example 171], the concentration for half-maximal inhibition (IC50) was determined as 0.037 µM.

Take `CCc1c(-c2ccco2)n(C)c2c(C#N)cnn2c1=O` [Example 177]: the 50% inhibitory concentration (IC50) stood at 0.038 µM.

`CC(C)c1c(-c2cccc(F)c2)[nH]c2c(C#N)cnn2c1=O` [Example 90]: the IC50 was 0.009 µM.

Consider `CC(C)c1c(-c2ccn(S(=O)(=O)C3CC3)n2)[nH]c2c(C#N)cnn2c1=O` [Example 109], for which the 50% inhibitory concentration (IC50) turned out to be 0.011 µM.

Regarding `CC(C)c1c(-c2cccc(COc3ccccc3)c2)[nH]c2c(C#N)cnn2c1=O` [Compound 358], the 50% inhibitory concentration (IC50) came to 0.025 µM.

For the compound `CC(C)c1c(-c2cnn(-c3ccccc3)c2)[nH]c2c(C#N)cnn2c1=O` [Example 54], the half-maximal inhibitory concentration (IC50) came to 0.006 µM.

Consider `COc1cc(-c2[nH]c3c(C#N)cnn3c(=O)c2C(C)C)ccc1C(F)(F)F` [Example 255], for which the half-inhibitory concentration (IC50) is 0.035 µM.

`CC(C)c1c(-c2ccn(C)n2)[nH]c2c(C#N)cnn2c1=O` [Example 63]: the IC50 came to 0.015 µM.

As to `CCc1c(-c2cccc(-c3cnn(C(C)C)c3)c2)[nH]c2c(C#N)cnn2c1=O` [Example 228], the IC50 was 0.023 µM.

For `CC(C)c1c(-c2cnn(-c3ccncc3)c2)[nH]c2c(C#N)cnn2c1=O` [Example 11, 6-Isopropyl-7-oxo-5-(1-(pyridin-4-yl)-1H-pyrazol-4-yl)-4,7-dihydropyrazolo[1,5-a]pyrimidine-3-carbonitrile], the half-maximal inhibitory concentration (IC50) came to 0.014 µM.

As for `Cc1ccc(-c2[nH]c3c(C#N)cnn3c(=O)c2C(C)C)cc1C#N` [Example 150], the IC50 was 0.014 µM.

For `CC(C)c1c(/C=C/C2CC2)[nH]c2c(C#N)cnn2c1=O` [Compound 360], the IC50 was determined as 0.028 µM.

In the case of `C=Cc1[nH]c2c(C#N)cnn2c(=O)c1C(C)C` [Example 76], the IC50 worked out at 0.006 µM.

`Cc1ccc(-c2[nH]c3c(C#N)cnn3c(=O)c2C(C)C)cc1` [Example 330]: the IC50 was 0.023 µM.

On to `CC(C)c1c(-c2ccnn2CC2CC2)[nH]c2c(C#N)cnn2c1=O` (single isomer, unassigned) [Example 15, 5-(1-(cyclopropylmethyl)-1H-pyrazol-5-yl)-6-isopropyl-7-oxo-4,7-dihydropyrazolo[1,5-a]pyrimidine-3-carbonitrile], for which the concentration for half-maximal inhibition (IC50) worked out at 0.047 µM.

Turning to `CC(C)c1c(-c2ccc3c(c2)CCO3)[nH]c2c(C#N)cnn2c1=O` [Example 152], the IC50 was 0.014 µM.

Regarding `CC(C)c1c(C2=CCNC2)[nH]c2c(C#N)cnn2c1=O` [Example 293], the IC50 was 0.019 µM.

On to `COc1ccc(-c2[nH]c3c(C#N)cnn3c(=O)c2C(C)C)cc1C` [Example 120], for which the IC50 is 0.019 µM.

In the case of `N#Cc1cnn2c(=O)c(Cl)c(-c3ccccc3)[nH]c12` [Example 216], the half-maximal inhibitory concentration (IC50) worked out at 0.02 µM.

With `CC(C)c1c(-c2cccc(OCCc3ccccc3)c2)[nH]c2c(C#N)cnn2c1=O` [Example 319], the IC50 was 0.046 µM.

As for `CC(C)c1c(-c2ccc(Nc3ccccc3)cc2)[nH]c2c(C#N)cnn2c1=O` [Example 322], the concentration for half-maximal inhibition (IC50) is 0.01 µM.

`CC(C)c1c(-c2cccc(C(=O)N3CCN(C)CC3)c2)[nH]c2c(C#N)cnn2c1=O` [Compound 400]: the half-maximal inhibitory concentration (IC50) is 0.035 µM.

As for `CC(=O)Nc1cc(-c2ccccc2)cc(-c2cc(=O)n3ncc(C#N)c3[nH]2)c1` [Example 44, N-[3-(3-Cyano-7-oxo-4H-pyrazolo[1,5-a]pyrimidin-5-yl)-5-phenyl-phenyl]acetamide], the IC50 is 0.368 µM.

In the case of `CC(C)c1c(-c2cnn(Cc3cccc4ccsc34)c2)[nH]c2c(C#N)cnn2c1=O` [Example 303], the half-inhibitory concentration (IC50) was found to be 0.015 µM.

`CCn1cc(-c2c(C(C)C)c(=O)n3ncc(C#N)c3n2C)cn1` [Example 189]: the concentration for half-maximal inhibition (IC50) is 0.16 µM.

For `Cc1cc(-c2[nH]c3c(C#N)cnn3c(=O)c2C(C)C)cc(C)c1Cl` [Example 298], the IC50 was 0.024 µM.

On to `CCC(C)c1c(-c2ccccc2)[nH]c2c(C#N)cnn2c1=O` (stereo not drawn) [Example 236], for which the concentration for half-maximal inhibition (IC50) stood at 0.018 µM.
